Experimental findings from patent publication EP0028083A1, “Derivatives of clavulanic acid, a process for their preparation and pharmaceutical compositions containing them” (BEECHAM GROUP PLC, priority 1979, dated 1981) are described below.

What all share (format): cell-based
One test has as its system K. aerogenes E70. The test is described as follows: MIC by standard microtitre technique, amoxycillin with and without compound.
Test [1] relates to E. coli JT39. Described as above.
Another test relates to S. aureus Russell. The description is as above.
A further test deals with Kleb. aerogenes E70. The test is described as follows: MIC by standard microtitre technique, ampicillin with and without inhibitor. To be noted: dilution in trytone soy broth. The procedure:
(§1) By a standard microtitre technique the MIC values for ampicillin alone, ampicillin and 9-(4-benzyl piperazinyldeoxyclavulanic acid and 9-(4-benzyl)piperazin -1-yldeoxyclavulanic acid alone were determined.

In test [2] the test system is E. coli JT39. The description is as above. To be noted: dilution in trytone soy broth. The procedure:
as §1

Another test concerns Staph. aureus Russell. The test is described as above. To be noted: dilution in trytone soy broth. As for the experimental part:
as §1

The mark [3] stands for this setting: Amoxycillin + compound, concentration of inhibitor 1.0 µg/ml.
Where [4] appears, read: Amoxycillin + compound, concentration of inhibitor 5.0 µg/ml.
Where [5] appears, read: Ampicillin + inhibitor at 1µg/ml.
Where [6] appears, read: Ampicillin + inhibitor at 5µg/ml.

≈ marks a conversion by molar mass, not a printed value.

Usually MIC stands for the lowest concentration that inhibits growth of the organism.

Consider `O=C(O)[C@H]1/C(=C/CN2CCN(c3ccccc3)CC2)O[C@@H]2CC(=O)N21` [Example 15, 9-(4-Phenylpiperazin-l-yl)deoxyclavulanic acid], for which the MIC in the test with K. aerogenes E70 (setting [3]) came to 12.5 µg/mL; in the test on K. aerogenes E70 (setting [4]) it was 6.2 µg/mL; in the test with E. coli JT39 [1] (setting [3]), 31.2 µg/mL; in the test on E. coli JT39 [1] (setting [4]), 4.0 µg/mL; in the test on S. aureus Russell (setting [3]), 0.16 µg/mL.
On to `CCOC(=O)N1CCN(C/C=C2\O[C@@H]3CC(=O)N3[C@H]2C(=O)O)CC1` [Example 4, 9-(4-Ethoxycarbonylpiperazin-1-yl)deoxyclavulanic acid], for which the MIC in the test on K. aerogenes E70 (setting [3]) worked out at 6.2 µg/mL; in the test with K. aerogenes E70 (setting [4]), 1.5 µg/mL; in the test with E. coli JT39 [1] (setting [3]), 31.2 µg/mL; in the test with E. coli JT39 [1] (setting [4]), 4.0 µg/mL; in the test on S. aureus Russell (setting [3]) it was 1.25 µg/mL; in the test on S. aureus Russell (setting [4]), 0.3 µg/mL.
Consider `O=C(OCc1ccc([N+](=O)[O-])cc1)[C@H]1/C(=C/CN2CCSCC2)O[C@@H]2CC(=O)N21` [Example 8, p-Nitrobenzyl 9-(thiomorpholino)deoxyclavulanate], for which the minimal inhibitory concentration (MIC) was 3.1 µg/mL in the test on K. aerogenes E70 (setting [3]); 1.6 µg/mL in the test on K. aerogenes E70 (setting [4]); 8.0 µg/mL in the test on E. coli JT39 [1] (setting [3]); 2.0 µg/mL in the test on E. coli JT39 [1] (setting [4]); 0.62 µg/mL in the test on S. aureus Russell (setting [3]).
On to `CC1(C)S[C@@H]2[C@H](NC(=O)[C@H](N)c3ccc(O)cc3)C(=O)N2[C@H]1C(=O)O` [Amoxycillin, reference compound], for which the MIC with K. aerogenes E70 (Amoxycillin alone), against E. coli JT39 [1] (Amoxycillin alone) and against S. aureus Russell (Amoxycillin alone) was 500 µg/mL (≈ 1370 µM) each time.
For `O=C(O)[C@H]1/C(=C/CN2CCOCC2)O[C@@H]2CC(=O)N21` [Example 11, 9-(Morpholino)deoxyclavulanic acid], the minimal inhibitory concentration (MIC) in the test on K. aerogenes E70 (setting [3]) was 3.1 µg/mL; with K. aerogenes E70 (setting [4]), 1.5 µg/mL; in the test with E. coli JT39 [1] (setting [3]), 16.0 µg/mL; in the test on E. coli JT39 [1] (setting [4]) it was 4.0 µg/mL; in the test with S. aureus Russell (setting [3]), 0.6 µg/mL; in the test with S. aureus Russell (setting [4]), 0.15 µg/mL.
As for `O=C(O)[C@H]1/C(=C/CN2CCN(Cc3ccccc3)CC2)O[C@@H]2CC(=O)N21` [Example 2, 9-(4-Benzylpiperazin-1-yl)deoxyclavulanic acid], the MIC in the test with Kleb. aerogenes E70 (setting [5]) is 25 µg/mL; in the test on Kleb. aerogenes E70 (setting [6]), 3.1 µg/mL; with Kleb. aerogenes E70 (Inhibitor alone), 500 µg/mL (≈ 1400 µM); with E. coli JT39 [2] (setting [5]), 62 µg/mL; with E. coli JT39 [2] (setting [6]), 16 µg/mL; with E. coli JT39 [2] (Inhibitor alone) it was over 500 µg/mL. The MIC with Staph. aureus Russell (setting [5]) was 0.3 µg/mL; with Staph. aureus Russell (setting [6]), under 0.01 µg/mL; against Staph. aureus Russell (Inhibitor alone), 16 µg/mL (≈ 44.8 µM).
On to `CC1CN(C/C=C2\O[C@@H]3CC(=O)N3[C@H]2C(=O)O)CC(C)O1` (stereo partly shown) [Example 13, 9-(2,6-DimethyLmorpholino)deoxyclavulanic acid], for which the MIC is 6.2 µg/mL with K. aerogenes E70 (setting [3]); 1.5 µg/mL in the test on K. aerogenes E70 (setting [4]); 31.2 µg/mL in the test on E. coli JT39 [1] (setting [3]); 4.0 µg/mL with E. coli JT39 [1] (setting [4]); 1.25 µg/mL with S. aureus Russell (setting [3]); 0.3 µg/mL with S. aureus Russell (setting [4]).
Take `CC1(C)S[C@@H]2[C@H](NC(=O)[C@H](N)c3ccccc3)C(=O)N2[C@H]1C(=O)O` [Ampicillin, ampicillin, reference compound]: the MIC with Kleb. aerogenes E70 (Ampicillin alone) is 1000 µg/mL (≈ 2860 µM); in the test with E. coli JT39 [2] (Ampicillin alone), over 2000 µg/mL; in the test with Staph. aureus Russell (Ampicillin alone), 1000 µg/mL (≈ 2860 µM).
